In ChEMBL document CHEMBL2157996, “Thioglycine and L-thiovaline: biologically active H₂S-donors” (Bioorg Med Chem, 2012):
Active and inactive are the calls of the source. The rule behind the calls is not given here.

Assays:
[1] = Vasodilatory activity in Wistar rat RASMC cells assessed as increase in cGMP levels at 100 uM after 5 mins by enzyme immunoassay relative to control; type: functional, cell-based
[2] = Induction of H2S production after 15 mins by methylene blue method; type: physicochemical; conditions: 0.25 h
[3] = Drug degradation in Hanks buffered salt solution assessed as formation of glycine N-carboxyanhydride at 37 degC; type: physicochemical; conditions: buffer
[4] = Vasodilatory activity in Wistar rat RASMC cells assessed as increase in cGMP levels after 5 mins by enzyme immunoassay; type: functional, cell-based
[5] = Induction of H2S production at 200 uM measured every 15 sec to 1 min by thiobimane fluorescent method
[6] = Induction of H2S production after 60 mins by thiobimane fluorescent method; type: physicochemical; conditions: 1 h
[7] = Vasodilatory activity in Wistar rat RASMC cells assessed as increase in cGMP levels up to 3 mM after 5 mins by enzyme immunoassay; type: functional, cell-based
Rattus norvegicus [8] = experiment: Induction of H2S release in Sprague-Dawley rat plasma assessed as increase in H2S levels at 5 mg/kg, ip by amperometry; type: functional, organism-based; set-up: dose 5 mg/kg; conditions: TDE = time-dependent effect
Rattus norvegicus [9] = experiment: Induction of H2S release in Sprague-Dawley rat plasma assessed as increase in H2S levels at 5 mg/kg, ip after 30 mins by amperometry; type: functional, organism-based; set-up: dose 5 mg/kg
Rattus norvegicus [10] = experiment: Induction of H2S release in Sprague-Dawley rat plasma assessed as increase in H2S levels at 5 mg/kg, ip upto 8 hrs by amperometry; type: functional, organism-based; set-up: dose 5 mg/kg
[11] = Induction of H2S production by sodium nitroprusside assay; type: physicochemical
[12] = Induction of H2S production by amperometry; type: physicochemical
[13] = Induction of H2S production at 100 uM by amperometry; type: physicochemical
[14] = Stability of the compound assessed as compound remaining at 25 degC after 24 hrs by NMR spectroscopy in the presence of NaHCO3; type: physicochemical; conditions: NaHCO3 present; read-out: Stability
[15] = Stability of the compound assessed as compound remaining at 40 degC after 24 hrs by NMR spectroscopy in the presence of NaHCO3; type: physicochemical; conditions: NaHCO3 present; read-out: Stability
[16] = Stability of the compound assessed as compound remaining at 40 degC after 36 hrs by NMR spectroscopy in the presence of NaHCO3; type: physicochemical; conditions: NaHCO3 present; read-out: Stability
[17] = Stability of the compound assessed as compound remaining at 40 degC after 48 hrs by NMR spectroscopy in the presence of NaHCO3; type: physicochemical; conditions: NaHCO3 present; read-out: Stability
[18] = Stability of the compound assessed as compound remaining at 40 degC after 60 hrs by NMR spectroscopy in the presence of NaHCO3; type: physicochemical; conditions: NaHCO3 present; read-out: Stability
[19] = Stability of the compound assessed as compound remaining at 40 degC after 72 hrs by NMR spectroscopy in the presence of NaHCO3; type: physicochemical; conditions: NaHCO3 present; read-out: Stability

## NCC(=O)O
[1]
  Activity: inactive

## CC(C)[C@H](N)C(=O)S
[2]
  Activity: Active
[3]
  Drug metabolism: Active
[4]
  Activity: Dose-dependent effect
[5]
  Activity: Active

## CC(C)[C@H](N)C(=O)O
[1]
  Activity: inactive

## NCC(=O)S [THIOGLYCIN]
[2]
  Activity: Active
[6]
  Activity: Active
[3]
  Drug metabolism: Active
[4]
  Activity: Dose-dependent effect
[7]
  Activity: Active
Rattus norvegicus [8]
  Activity: tde
Rattus norvegicus [9]
  Activity: Active
Rattus norvegicus [10]
  Activity: Active
[5]
  Activity: Active
[1]
  fold change (FC): 10
[11]
  Activity: Active
[12]
  Activity: Dose-dependent effect
[13]
  Activity: Active
[14]
  remaining at 24 h: 100%
[15]
  remaining at 24 h: 88%
[16]
  remaining at 36 h: 83%
[17]
  remaining at 48 h: 76%
[18]
  remaining at 60 h: 72%
[19]
  remaining at 72 h: 85%
